These results are taken from PubChem BioAssay AID272 (DTP/NCI, 2004).

The assay relates to Lewis lung carcinoma i.m., BDF1 mice, T/C %. The assay can be described thus: NCI In Vivo Anticancer Drug Screen. Data for tumor model Lewis Lung Carcinoma (intramuscular) in B6D2F1 (BDF1) mice. The method in brief: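 Antitumour activity is assessed in transplanted-tumour mice. Endpoint is survival or tumour size, normalised to vehicle-dosed controls (T/C).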
[1] abbreviates: endpoint: median survival time, dose: 6.25 mg/kg/injection, schedule: Q01DX011 (ip), vehicle: saline with Tween-80, higher = longer survival.
[2] abbreviates: endpoint: mean tumor weight (est.), dose: 6.25 mg/kg/injection, schedule: Q01DX011 (ip), vehicle: saline with Tween-80, higher = larger tumour.

Where “and” joins values, the source holds several entries; their conditions need not be identical. Identical values can stand only once. Inconclusive results are not listed. Starred links: 1 amine or outer side, 2 acyl side, 3 side chain; linkers in the order of their positions; H or OH if unused. Positions of bridges follow the written chain, without caps; N, C: chain ends. Non-standard residues stand in square brackets, D forms with d. Residues, ends and D or L forms follow the SMILES beside them. Chains are numbered I, II in the order given. Actinocin(9to1) = Cc1c2oc3c(C)ccc(C(=O)[*:1])c3nc-2c(C(=O)[*:2])c(N)c1=O; aThr = C[C@H](O)[C@H](N)C(=O)O; NMeV = CN[C@H](C(=O)O)C(C)C; Sar = CNCC(=O)O

Consider `Cc1c2oc3c(C)ccc(C(=O)N[C@@H]4C(=O)N[C@H](C(C)C)C(=O)N5CCC[C@H]5C(=O)N(C)CC(=O)N(C)[C@@H](C(C)C)C(=O)O[C@H]4C)c3nc-2c(C(=O)N[C@@H]2C(=O)N[C@H](C(C)C)C(=O)N3CCC[C@H]3C(=O)N(C)CC(=O)N(C)[C@@H](C(C)C)C(=O)O[C@H]2C)c(N)c1=O` (I: [aThr][dV]P[Sar][NMeV] / II: [aThr][dV]P[Sar][NMeV]; ester I:1-I:C, II:1-II:C; linker I:N-II:N via Actinocin(9to1)), for which the T/C was 99 % of control and 110 % of control and 112 % of control (endpoint: median survival time, dose: 0.01 mg/kg/injection, schedule: Q01DX011 (ip), vehicle: water, higher = longer survival); 93 % of control and 94 % of control and 110 % of control (endpoint: median survival time, dose: 0.02 mg/kg/injection, schedule: Q01DX011 (ip), vehicle: water, higher = longer survival); 110 % of control (endpoint: median survival time, dose: 0.04 mg/kg/injection, schedule: Q01DX011 (ip), vehicle: water, higher = longer survival); 99 % of control and 100 % of control (endpoint: median survival time, dose: 0.05 mg/kg/injection, schedule: Q01DX011 (ip), vehicle: water, higher = longer survival).
As for `Oc1c(Cl)cc(Cl)c2cccnc12`, the T/C reads like this: (endpoint: mean tumor weight, dose: 6.25 mg/kg/injection, schedule: Q01DX011 (ip), vehicle: saline with Tween-80, higher = larger tumour) 60 % of control; (endpoint: mean tumor weight, dose: 12.5 mg/kg/injection, schedule: Q01DX011 (ip), vehicle: saline with Tween-80, higher = larger tumour) 19 % of control; under setting [1], 122 % of control.
Consider `CO[C@@]12[C@H](COC(N)=O)C3=C(C(=O)C(C)=C(N)C3=O)N1C[C@@H]1N[C@@H]12`, for which the T/C reads like this: (endpoint: mean tumor weight, dose: 0.5 mg/kg/injection, schedule: Q01DX005 (ip), vehicle: other, higher = larger tumour) 101 % of control; (endpoint: mean tumor weight, dose: 1.0 mg/kg/injection, schedule: Q01DX005 (ip), vehicle: other, higher = larger tumour) 82 % of control; (endpoint: mean tumor weight, dose: 2.0 mg/kg/injection, schedule: Q01DX005 (ip), vehicle: other, higher = larger tumour) 75 % of control; (endpoint: median survival time, dose: 0.25 mg/kg/injection, schedule: Q01DX009 (ip), vehicle: Klucel (hydroxypropylcellulose) (HPC), higher = longer survival) 86 % of control and 112 % of control; (endpoint: median survival time, dose: 0.25 mg/kg/injection, schedule: Q01DX011 (ip), vehicle: saline, higher = longer survival) 112 % of control; (endpoint: median survival time, dose: 0.5 mg/kg/injection, schedule: Q01DX005 (ip), vehicle: other, higher = longer survival) 90 % of control. Also, the T/C is, setting by setting: (endpoint: median survival time, dose: 0.5 mg/kg/injection, schedule: Q01DX005 (ip), vehicle: saline, higher = longer survival) 107 % of control; (endpoint: median survival time, dose: 0.5 mg/kg/injection, schedule: Q01DX009 (ip), vehicle: Klucel (hydroxypropylcellulose) (HPC), higher = longer survival) 101 % of control and 110 % of control; (endpoint: median survival time, dose: 0.5 mg/kg/injection, schedule: Q01DX011 (ip), vehicle: saline, higher = longer survival) 114 % of control; (endpoint: median survival time, dose: 1.0 mg/kg/injection, schedule: Q01DX005 (ip), vehicle: saline, higher = longer survival) 90 % of control; (endpoint: median survival time, dose: 1.0 mg/kg/injection, schedule: Q01DX009 (ip), vehicle: Klucel (hydroxypropylcellulose) (HPC), higher = longer survival) 97 % of control; (endpoint: median survival time, dose: 1.0 mg/kg/injection, schedule: Q01DX011 (ip), vehicle: water, higher = longer survival) 86 % of control. Also, the T/C is, setting by setting: (endpoint: median survival time, dose: 2.0 mg/kg/injection, schedule: Q01DX005 (ip), vehicle: other, higher = longer survival) 114 % of control; (endpoint: median tumor weight (est.), dose: 0.5 mg/kg/injection, schedule: Q01DX005 (ip), vehicle: saline, higher = larger tumour) 64 % of control; (endpoint: median tumor weight (est.), dose: 1.0 mg/kg/injection, schedule: Q01DX005 (ip), vehicle: saline, higher = larger tumour) 78 % of control.
For the compound `O=C(Nc1ccc(S(=O)(=O)O)cc1)c1ccc([N+](=O)[O-])cc1`, the T/C reads like this: (endpoint: mean tumor weight (est.), dose: 3.5 mg/kg/injection, schedule: Q01DX011 (ip), vehicle: saline, higher = larger tumour) 87 % of control; (endpoint: mean tumor weight (est.), dose: 7.0 mg/kg/injection, schedule: Q01DX011 (ip), vehicle: saline, higher = larger tumour) 120 % of control; (endpoint: mean tumor weight (est.), dose: 14.0 mg/kg/injection, schedule: Q01DX011 (ip), vehicle: saline, higher = larger tumour) 94 % of control; (endpoint: mean tumor weight (est.), dose: 28.0 mg/kg/injection, schedule: Q01DX011 (ip), vehicle: saline, higher = larger tumour) 82 % of control; (endpoint: median survival time, dose: 3.5 mg/kg/injection, schedule: Q01DX011 (ip), vehicle: saline, higher = longer survival) 92 % of control; (endpoint: median survival time, dose: 7.0 mg/kg/injection, schedule: Q01DX011 (ip), vehicle: saline, higher = longer survival) 96 % of control. The T/C is, setting by setting: (endpoint: median survival time, dose: 14.0 mg/kg/injection, schedule: Q01DX011 (ip), vehicle: saline, higher = longer survival) 105 % of control; (endpoint: median survival time, dose: 28.0 mg/kg/injection, schedule: Q01DX011 (ip), vehicle: saline, higher = longer survival) 117 % of control.
On to `CN1CCN(c2ccc([N+](=O)[O-])c3no[n+]([O-])c23)CC1`, for which the T/C reads like this: (endpoint: median survival time, dose: 10.0 mg/kg/injection, schedule: Q02DX011 (ip), vehicle: saline with Tween-80, higher = longer survival) 105 % of control; (endpoint: median survival time, dose: 20.0 mg/kg/injection, schedule: Q02DX011 (ip), vehicle: saline with Tween-80, higher = longer survival) 94 % of control.
In the case of `Cc1nn(CCO)c(C)c1N=[N+]([O-])c1c(C)nn(CCO)c1C`, the T/C is 105 % of control (endpoint: median survival time, dose: 15.0 mg/kg/injection, schedule: Q02DX011 (ip), vehicle: saline with Tween-80, higher = longer survival); 86 % of control (endpoint: median survival time, dose: 30.0 mg/kg/injection, schedule: Q02DX011 (ip), vehicle: saline with Tween-80, higher = longer survival); 97 % of control (endpoint: median survival time, dose: 60.0 mg/kg/injection, schedule: Q02DX011 (ip), vehicle: saline with Tween-80, higher = longer survival).
On to `COC(=O)Nc1nc2ccc(C3(c4ccc(F)cc4)OCCO3)cc2[nH]1`, for which the T/C is, setting by setting: (endpoint: median survival time, dose: 20.0 mg/kg/injection, schedule: Q01DX011 (oral), vehicle: other, higher = longer survival) 97 % of control; (endpoint: median survival time, dose: 40.0 mg/kg/injection, schedule: Q01DX011 (oral), vehicle: other, higher = longer survival) 97 % of control.
As for `N=c1ccn2c(n1)OC1C(OP(=O)(O)O)C(CO)OC12` (configuration not stated), the T/C is 79 % of control (endpoint: mean tumor weight (est.), dose: 12.5 mg/kg/injection, schedule: Q01DX011 (oral), vehicle: water, higher = larger tumour); 71 % of control (endpoint: mean tumor weight (est.), dose: 25.0 mg/kg/injection, schedule: Q01DX011 (oral), vehicle: water, higher = larger tumour); 13 % of control (endpoint: mean tumor weight (est.), dose: 50.0 mg/kg/injection, schedule: Q01DX011 (oral), vehicle: water, higher = larger tumour); 12 % of control (endpoint: mean tumor weight (est.), dose: 100.0 mg/kg/injection, schedule: Q01DX011 (oral), vehicle: water, higher = larger tumour); 12 % of control (endpoint: mean tumor weight (est.), dose: 200.0 mg/kg/injection, schedule: Q01DX011 (oral), vehicle: water, higher = larger tumour); 109 % of control (endpoint: median survival time, dose: 12.5 mg/kg/injection, schedule: Q01DX011 (oral), vehicle: water, higher = longer survival). For the same compound, the T/C is 105 % of control (endpoint: median survival time, dose: 25.0 mg/kg/injection, schedule: Q01DX011 (oral), vehicle: water, higher = longer survival); 118 % of control (endpoint: median survival time, dose: 50.0 mg/kg/injection, schedule: Q01DX011 (oral), vehicle: water, higher = longer survival); 120 % of control (endpoint: median survival time, dose: 100.0 mg/kg/injection, schedule: Q01DX011 (oral), vehicle: water, higher = longer survival); 116 % of control (endpoint: median survival time, dose: 200.0 mg/kg/injection, schedule: Q01DX011 (oral), vehicle: water, higher = longer survival).
For `Clc1ccc2nc(CBr)cnc2c1`, the T/C runs as follows: under setting [2], 64 % of control; (endpoint: mean tumor weight (est.), dose: 12.5 mg/kg/injection, schedule: Q01DX011 (ip), vehicle: saline with Tween-80, higher = larger tumour) 77 % of control; (endpoint: mean tumor weight (est.), dose: 25.0 mg/kg/injection, schedule: Q01DX011 (ip), vehicle: saline with Tween-80, higher = larger tumour) 81 % of control; under setting [1], 105 % of control; (endpoint: median survival time, dose: 12.5 mg/kg/injection, schedule: Q01DX011 (ip), vehicle: saline with Tween-80, higher = longer survival) 105 % of control; (endpoint: median survival time, dose: 25.0 mg/kg/injection, schedule: Q01DX011 (ip), vehicle: saline with Tween-80, higher = longer survival) 103 % of control.
For `O=C(O)CCCC1CCCCC1.[Cu+2]`, under setting [2], the T/C is 61 % of control.
Take `CCOC(=O)N1c2ccccc2C=CC1C#N` (configuration not stated): the T/C (endpoint: mean tumor weight (est.), dose: 50.0 mg/kg/injection, schedule: Q01DX011 (ip), vehicle: saline with Tween-80, higher = larger tumour) was 67 % of control; the T/C (endpoint: mean tumor weight (est.), dose: 100.0 mg/kg/injection, schedule: Q01DX011 (ip), vehicle: saline with Tween-80, higher = larger tumour) was 91 % of control; the T/C (endpoint: mean tumor weight (est.), dose: 200.0 mg/kg/injection, schedule: Q01DX011 (ip), vehicle: saline with Tween-80, higher = larger tumour) was 72 % of control; the T/C (endpoint: mean tumor weight (est.), dose: 400.0 mg/kg/injection, schedule: Q01DX011 (ip), vehicle: saline with Tween-80, higher = larger tumour) is 59 % of control; the T/C (endpoint: median survival time, dose: 50.0 mg/kg/injection, schedule: Q01DX011 (ip), vehicle: saline with Tween-80, higher = longer survival) is 94 % of control; the T/C (endpoint: median survival time, dose: 100.0 mg/kg/injection, schedule: Q01DX011 (ip), vehicle: saline with Tween-80, higher = longer survival) is 90 % of control. Also, the T/C is 96 % of control (endpoint: median survival time, dose: 200.0 mg/kg/injection, schedule: Q01DX011 (ip), vehicle: saline with Tween-80, higher = longer survival) and 88 % of control (endpoint: median survival time, dose: 400.0 mg/kg/injection, schedule: Q01DX011 (ip), vehicle: saline with Tween-80, higher = longer survival).
